Source: patent US9932617B2, “Ketose 3-epimerase produced by arthrobacter globiformis” (priority 2013, dated 2018)
Where two headings read alike, the source gives them in different places. Marks after values point to notes of the source that are not given here.

Tests used:
Type in all cases: biochemical, Arthrobacter globiformis M30
ketose 3-epimerase [1] = molecular target: T1, ketose 3-epimerase (Arthrobacter globiformis, UniProt A0A1L7NQ96); assay: Effects of metal ions on EDTA treated purified enzyme; conditions: for Relative activity (%): 1 mM metal ion, D-psicose substrate, EDTA treated enzyme, activity without metal ions taken as 100; for metal ion activation: purified enzyme
T1 sequence (A0A1L7NQ96 whole entry): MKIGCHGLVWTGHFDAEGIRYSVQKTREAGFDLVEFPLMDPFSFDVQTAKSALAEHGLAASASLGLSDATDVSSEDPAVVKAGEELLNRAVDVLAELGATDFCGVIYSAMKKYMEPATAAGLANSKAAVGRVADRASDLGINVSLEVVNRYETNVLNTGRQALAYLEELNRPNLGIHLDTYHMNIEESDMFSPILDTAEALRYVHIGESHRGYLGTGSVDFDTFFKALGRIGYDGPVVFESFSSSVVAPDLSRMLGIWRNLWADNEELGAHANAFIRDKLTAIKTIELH
Experimental: The enzyme was examined for metal ion requirement. The purified enzyme was dialyzed for 2 hours against 10 mM Tris-HCl containing 1 mM EDTA (pH 7.5). The enzyme was further dialyzed against an EDTA-free 10 mM Tris-HCl buffer (pH 7.5) for a whole day and night to obtain an EDTA treated enzyme. This enzyme was used to measure the effect of metal ions on enzyme activity, using 1 mM of various metal ions, and D-psicose as the substrate. The results are presented in Table 13, in which the activity with addition of each type of metal ions is shown as the relative value with respect to the activity of the enzyme without metal ions which is taken as 100.

ketose 3-epimerase [2] = molecular target: T1, ketose 3-epimerase
ketose 3-epimerase [3] = molecular target: T1, ketose 3-epimerase; assay: Km and Vmax of the present enzyme; conditions: 30° C., in the presence of Mg^2+ ions
Experimental: The Km and Vmax of the present enzyme for D-psicose and D-fructose were measured. The measurement was made by measuring enzyme activity at 30° C. in the presence of Mg^2+ ions.

ketose 3-epimerase [4] = molecular target: T1, ketose 3-epimerase; assay: Substrate specificity of purified enzyme for all ketohexoses; conditions: 400 mM substrate, 20 mM MgCl2, 70° C. (120 min for D-sorbose and L-fructose, 20 min others), D-psicose taken as 100
Experimental: The reactivity of the present enzyme was examined with respect to the all ketohexoses. The enzyme activity was tabulated as the relative activity with respect to the activity for D-psicose which is taken as 100. The present enzyme had activity for the all ketohexoses, and the activity was the highest for D-psicose. […] The initial velocity was determined by allowing a reaction at 70° C. for 120 min for D-sorbose and L-fructose, and 70° C. for 20 min for the other substrates.

ketose 3-epimerase [5] = molecular target: T1, ketose 3-epimerase; assay: D-PE substrate specificity, enzyme before purification (crude enzyme); conditions: 0.2 M substrate, 55° C., 30 min, Tris buffer pH 7.0, D-psicose epimerization activity taken as 100
Experimental: A reaction was allowed under the reaction conditions below. After quenching the reaction by boiling, the reaction liquid was desalted with an ion-exchange resin, and filtered to prepare an HPLC sample. The sample was analyzed by chromatography using CK08EC (Mitsubishi Chemical Corporation) in an HPLC system (Tosoh). Each product sugar was determined by calculations from the peak area values of the chromatogram.
Eight hexose (ketoses) were used to examine the substrate specificity of the present enzyme before purification. An enzyme reaction composition (Table 4) containing each substrate (0.2 M, 350 μl) and an enzyme liquid (350 μl; Tris buffer pH 7.0) was allowed to react at 55° C. for 30 min, and the ketose epimerized and produced from each sugar was analyzed by HPLC. The results are presented as relative activity for each ketose relative to the D-psicose epimerization activity which is taken as 100, as follows. Table 5 presents relative activity values for D-fructose, D-psicose, D-sorbose, D-tagatose, L-fructose, L-psicose, L-sorbose, […] L-tagatose substrates. The activity was the highest for D-psicose, and the second highest for D-fructose. The substrate specificity can be said as characteristic of the D-psicose 3 epimerase (DPE), not other free ketose 3 epimerases, and was clearly different from the specificity of the D-tagatose3-epimerase (DTE) of Pseudomonas cichorii.

[6] = crude enzyme dialyzed against EDTA, D-fructose substrate, pH 7.0, 55° C., 30 min

Compound	Relative activity (%) (ketose 3-epimerase [1])	Relative activity (%) (ketose 3-epimerase [4])	Relative activity (%) (ketose 3-epimerase [5])	further results
[Ca+2] [Ca^2+, calcium]	110%	–	–	metal ion activation (ketose 3-epimerase [1]): activatable
[Cl-].[Cl-].[Co+2] [CoCl2]	–	–	–	metal ion activation (effect of metal salt on enzyme activity) (ketose 3-epimerase [2]; pH 7): increased
[Co+2] [Co^2+, divalent cobalt ions]	130%	–	–	metal ion activation (ketose 3-epimerase [1]): activatable; metal ion activation (effect of metal salt on enzyme activity) (ketose 3-epimerase [2]; [6]): activatable
[Cu+2] [Cu^2+]	0%	–	–	–
O=C(CO)[C@@H](O)[C@H](O)[C@H](O)CO [D-fructose]	–	43.8%	58.14%	Km (ketose 3-epimerase [3]): 31.5 mM; Vmax (ketose 3-epimerase [3]): 68.5 U/mg
O=C(CO)[C@H](O)[C@H](O)[C@H](O)CO [D-psicose]	–	100%	100* %	Km (ketose 3-epimerase [3]): 30.1 mM; Vmax (ketose 3-epimerase [3]): 168 U/mg
O=C(CO)[C@H](O)[C@@H](O)[C@H](O)CO [D-sorbose]	–	1.13%	1.25%	–
O=C(CO)[C@@H](O)[C@@H](O)[C@H](O)CO [D-tagatose]	–	18.3%	5.42%	–
[Fe+2] [Fe^2+]	32%	–	–	–
O=C(CO)[C@H](O)[C@@H](O)[C@@H](O)CO [L-fructose]	–	0.97%	12%	–
O=C(CO)[C@@H](O)[C@@H](O)[C@@H](O)CO [L-psicose]	–	21.2%	12%	–
O=C(CO)[C@@H](O)[C@H](O)[C@@H](O)CO [L-sorbose]	–	16.6%	8%	–
O=C(CO)[C@H](O)[C@H](O)[C@@H](O)CO [L-tagatose]	–	44.0%	12.5%	–
[Mg+2] [Mg^2+, magnesium ions]	150%	–	–	metal ion activation (ketose 3-epimerase [1]): activatable
[Mn+2] [Mn^2+, divalent manganese ions]	137%	–	–	metal ion activation (ketose 3-epimerase [1]): activatable; metal ion activation (effect of metal salt on enzyme activity) (ketose 3-epimerase [2]; [6]): activatable
[Na+] [Na^+]	120%	–	–	–
[Ni+2] [Ni^2+]	87%	–	–	–
[Zn+2] [Zn^2+]	0%	–	–	–
manganese chloride [MnCl2]	–	–	–	metal ion activation (effect of metal salt on enzyme activity) (ketose 3-epimerase [2]; [6]): increased
